Data reported in BindingDB's records for doi:10.1016/j.bmcl.2005.01.051 (Merck Research Laboratories, 2005).

Assay: Inhibition of alphaIIb-beta3 integrin mediated platelet aggregation (PLAGGIN15)

**Q.** For `COc1ccc([C@@H](CCC[C@@H](O)CCc2ccc3c(n2)NCCC3)CC(=O)O)cn1` [(3S,7R)-7-Hydroxy-3-(6-methoxy-pyridin-3-yl)-9-(5,6,7,8-tetrahydro-[1,8]naphthyridin-2-yl)-nonanoic acid], which IC50 is on record?
**A.** > 10 µM

**Q.** Which IC50 does the source give for `COc1ccc([C@@H](CCC[C@H](O)CCc2ccc3c(n2)NCCC3)CC(=O)O)cn1` [(3S,7S)-7-Hydroxy-3-(6-methoxy-pyridin-3-yl)-9-(5,6,7,8-tetrahydro-[1,8]naphthyridin-2-yl)-nonanoic acid] here?
**A.** > 10 µM

**Q.** Which IC50 does the source give for `COc1ccc([C@@H](CCCC(=O)CCc2ccc3c(n2)NCCC3)CC(=O)O)cn1` [(S)-3-(6-Methoxy-pyridin-3-yl)-7-oxo-9-(5,6,7,8-tetrahydro-[1,8]naphthyridin-2-yl)-nonanoic acid] here?
**A.** > 10 µM
